# Experimental data: patent US20260355323A1, “CEREBLON-RECRUITING BCL-XL/BCL-2 DUAL DEGRADERS” (University of Florida Research Foundation, Incorporated, priority 2022, published 2026)
# Columns and labels:
# [1] = system: MOLT-4 acute lymphoblastic leukemia cells; test: Cell viability, tetrazolium-based MTS assay, MOLT-4; conditions: Homo sapiens, MOLT-4, 48 h; read-out: Anti-Cancer Activity EC50 (48 hr), MOLT-4
# Method: (§1) Acute lymphoblastic leukemia cells (MOLT-4 and RS4;11) were incubated with increasing concentrations of Bcl-xL/Bcl-2 degraders for 48 h. Cell viability was measured by tetrazolium-based MTS assay.
# [2] = system: RS4;11 acute lymphoblastic leukemia cells; test: Cell viability, tetrazolium-based MTS assay, RS4;11; conditions: Homo sapiens, RS4;11, 48 h, read-out: Anti-Cancer Activity EC50 (48 hr), RS4
# Method: as §1
# [3] = system: HUVEC irradiation-induced senescent cells (IR-SC); test: Senolytic activity, cell viability (PrestoBlue HS), HUVEC IR-SC; type: cell-based; conditions: Homo sapiens, 72 h
# Method: To induce senescence in WI-38 and HUVEC, cells were subjected to x-ray irradiation at 20 Gray using X-RAD 320 biological irradiator. Following between 10 to 15 days after irradiation, senescence was induced in cells, and irradiation-induced senescent cells (IR-SC) were then used for cell viability and Western blotting tests.
# (§2) WI-38 and HUVEC cells were incubated with increasing concentrations of degraders for 72 h. Cell viability was measured using PrestoBlue HS cell viability reagent.
# HUVEC NC = test: Senolytic activity, cell viability (PrestoBlue HS), HUVEC NC; type: cell-based
# Method: as §2
# [4] = system: WI-38 irradiation-induced senescent cells (IR-SC); test: Senolytic activity, cell viability (PrestoBlue HS), WI-38 IR-SC; type: cell-based; conditions: Homo sapiens, 72 h
# Outline: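 WI-38 and HUVEC were made senescent by 20 Gy x-ray irradiation and used 10–15 days later. Senescent cells were exposed to increasing degrader concentrations for 72 h. Viability was read with PrestoBlue HS.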
# WI-38 NC = test: Senolytic activity, cell viability (PrestoBlue HS), WI-38 NC; type: cell-based; conditions: Homo sapiens, 72 h
# Method: as §2
# Bcl-xL [5] = target: T1, Bcl-xL (Homo sapiens, UniProt Q07817); test: Bcl-xL protein degradation in Jurkat cells (immunoblot); type: cell-based; conditions: 16 h
# T1 construct: immunoblot after 16 h degrader treatment
# Method: (§3) Jurkat and Hela cells were incubated with increasing concentrations of test compounds for 16 h. The cells were harvested and lysed in RIPA lysis buffer supplemented with protease and phosphatase inhibitor cocktails. An equal amount of protein (20 μg/lane) was resolved on a pre-cast 4-20% SDS-PAGE gel. Proteins were subsequently transferred to NOVEX PVDF membranes by electrophoresis. The membranes were blocked in blocking buffer (5% non-fat dry milk in TBS-T), and incubated with primary antibodies (at optimized concentrations) overnight at 4° C. After three washings in TBS-T, the membranes were incubated with an appropriate FIRP-conjugated secondary antibody for 1 h at room temperature. After extensive washing for three times, the proteins of interest were detected with ECL western blotting detection reagents and recorded with autoradiography (Pierce Biotech, Rockford, IL, USA). The primary antibodies for Bcl-xL (Cat #2762), Bcl-2 (Cat #2872), Bcl-w (Cat #2724) and β-actin (Cat #4970) were purchased from Cell Signaling Technology. The relative band intensity was measured using ImageJ software and normalized to β-actin.
# Bcl-xL [6] = target: T1, Bcl-xL; test: Bcl-xL protein degradation in Hela cells (immunoblot); type: cell-based; conditions: 16 h
# Method: as §3
# platelets = conditions: animals and/or humans; cited from earlier work
# [7] = system: venetoclax resistant CLL cells; conditions: cited from earlier work
# T1 sequence (Q07817 whole entry): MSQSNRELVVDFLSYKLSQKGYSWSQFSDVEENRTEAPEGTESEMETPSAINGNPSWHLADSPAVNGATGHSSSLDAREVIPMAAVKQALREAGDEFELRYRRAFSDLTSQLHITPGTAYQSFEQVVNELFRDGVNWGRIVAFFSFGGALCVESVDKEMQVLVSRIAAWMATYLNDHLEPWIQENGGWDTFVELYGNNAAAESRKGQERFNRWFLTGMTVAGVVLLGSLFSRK
# T1 sequence (Q96SW2 whole entry partner): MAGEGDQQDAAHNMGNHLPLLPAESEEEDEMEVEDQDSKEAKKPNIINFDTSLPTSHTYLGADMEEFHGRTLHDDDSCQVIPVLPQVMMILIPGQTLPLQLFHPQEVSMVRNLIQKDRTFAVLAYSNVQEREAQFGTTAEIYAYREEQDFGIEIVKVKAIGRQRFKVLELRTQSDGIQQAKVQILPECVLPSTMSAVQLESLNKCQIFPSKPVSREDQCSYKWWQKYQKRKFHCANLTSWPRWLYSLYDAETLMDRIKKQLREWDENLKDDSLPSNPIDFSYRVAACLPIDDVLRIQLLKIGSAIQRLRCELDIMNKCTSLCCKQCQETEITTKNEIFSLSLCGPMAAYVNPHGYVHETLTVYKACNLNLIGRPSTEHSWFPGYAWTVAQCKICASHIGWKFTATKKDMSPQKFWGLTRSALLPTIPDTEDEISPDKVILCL
EC50 [1] [nM],EC50 [2] [nM],Structure (SMILES),EC50 [3] [nM],"Senolytic Activity EC50 (72 hr), HUVEC NC (HUVEC NC)",EC50 [4] [nM],EC50 (WI-38 NC) [nM],degradation of Bcl-xL (Bcl-xL [5]),degradation of Bcl-xL (Bcl-xL [6]),dose-limiting thrombocytopenia (platelets),efficacy in killing venetoclax resistant CLL cells [7]
< 1,< 1,"C[C@@]1(CN2CCC(CN3CCCN(c4ccc5c(c4)CN(C4CCC(=O)NC4=O)C5=O)CC3)CC2)CCC(c2ccc(Cl)cc2)=C(CN2CCN(c3ccc(C(=O)NS(=O)(=O)c4ccc(N[C@H](CCN5CCCOCC5)CSc5ccccc5)c(S(=O)(=O)C(F)(F)F)c4)cc3)CC2)C1 (stereo partly drawn) [Compound 44, N-((4-(((R)-4-(1,4-oxazepan-4-yl)-1-(phenylthio)butan-2-yl)amino)-3-((trifluoromethyl)sulfonyl)phenyl)sulfonyl)-4-(4-(((4R)-4′-chloro-4-((4-((4-(2-(2,6-dioxopiperidin-3-yl)-1-oxoisoindolin-5-yl)-1,4-diazepan-1-yl)methyl)piperidin-1-yl)methyl)-4-methyl-3,4,5,6-tetrahydro-[1,1′-biphenyl]-2-yl)methyl)piperazin-1-yl)benzamide]",< 1,++ (100-10 μM),1 to 10,> 10000,degrade Bcl-xL in a dose-dependent manner,degrade Bcl-xL in a dose-dependent manner,,
,,"CC1(C)CCC(c2ccc(Cl)cc2)=C(CN2CCN(c3ccc(C(=O)NS(=O)(=O)c4ccc(N[C@H](CCN5CCOCC5)CSc5ccccc5)c(S(=O)(=O)C(F)(F)F)c4)cc3)CC2)C1 [ABT-263, navitoclax]",,,,,,,dose-limiting thrombocytopenia has been observed,high efficacy
